These compounds were tested against T1, FLK-1 receptor (Mus musculus, UniProt P35918) (assay: FLK-1 ELISA (kinase activity of the FLK-1 receptor in FLK-1/NIH3T3 cells, VEGF stimulated)).
T1 construct: expressed in transfected cells; host or cells: NIH3T3 C7#3
Assay type: cell-based
Parameters: concentration or dose not given beside the values
Procedure, shortened: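 FLK-1-expressing NIH3T3 C7#3 cells, starved overnight in 0.1% FBS medium, were treated with compounds at a 1:200 final dilution (0.5% DMSO) for 2 h at 37 °C, with VEGF stimulation. FLK-1 kinase activity was read by ELISA on anti-rabbit IgG plates using affinity-purified anti-FLK-1 antiserum.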

T1 sequence (P35918 20-1345): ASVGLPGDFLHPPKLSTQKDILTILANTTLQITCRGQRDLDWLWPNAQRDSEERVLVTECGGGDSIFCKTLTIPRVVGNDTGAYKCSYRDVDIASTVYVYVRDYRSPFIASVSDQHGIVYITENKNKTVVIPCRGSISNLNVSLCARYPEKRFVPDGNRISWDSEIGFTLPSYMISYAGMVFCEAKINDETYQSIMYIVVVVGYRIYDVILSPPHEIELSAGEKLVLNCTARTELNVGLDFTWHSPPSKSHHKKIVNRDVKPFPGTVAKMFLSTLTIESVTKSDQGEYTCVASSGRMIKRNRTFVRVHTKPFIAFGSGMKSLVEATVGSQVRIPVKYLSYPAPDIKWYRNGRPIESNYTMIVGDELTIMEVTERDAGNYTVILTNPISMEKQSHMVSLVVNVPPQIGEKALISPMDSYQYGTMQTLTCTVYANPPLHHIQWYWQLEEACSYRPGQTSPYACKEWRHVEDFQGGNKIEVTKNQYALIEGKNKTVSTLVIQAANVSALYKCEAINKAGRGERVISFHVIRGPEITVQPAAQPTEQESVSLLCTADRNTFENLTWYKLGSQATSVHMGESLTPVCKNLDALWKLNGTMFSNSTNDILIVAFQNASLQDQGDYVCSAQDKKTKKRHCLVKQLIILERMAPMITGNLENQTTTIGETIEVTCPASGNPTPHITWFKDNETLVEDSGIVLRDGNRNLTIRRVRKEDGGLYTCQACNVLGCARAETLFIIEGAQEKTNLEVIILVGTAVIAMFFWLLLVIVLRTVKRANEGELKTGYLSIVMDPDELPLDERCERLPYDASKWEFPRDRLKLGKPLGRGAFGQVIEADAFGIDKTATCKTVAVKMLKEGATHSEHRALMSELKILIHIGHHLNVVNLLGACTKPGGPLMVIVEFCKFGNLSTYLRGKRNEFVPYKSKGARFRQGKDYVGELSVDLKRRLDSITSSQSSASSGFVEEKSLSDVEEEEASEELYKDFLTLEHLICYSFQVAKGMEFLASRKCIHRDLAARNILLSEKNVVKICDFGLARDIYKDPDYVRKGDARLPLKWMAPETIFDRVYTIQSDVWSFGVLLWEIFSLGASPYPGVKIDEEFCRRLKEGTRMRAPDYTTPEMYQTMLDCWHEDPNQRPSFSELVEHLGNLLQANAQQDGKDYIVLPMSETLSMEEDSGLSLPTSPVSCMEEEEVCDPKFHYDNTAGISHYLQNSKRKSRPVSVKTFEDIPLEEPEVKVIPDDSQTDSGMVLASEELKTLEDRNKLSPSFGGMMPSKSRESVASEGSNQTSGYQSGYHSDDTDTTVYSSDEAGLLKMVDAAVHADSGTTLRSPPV

| Structure (SMILES) | Fik Kinase %Inhibition |
| --- | --- |
| CNS(=O)(=O)c1ccc2c(c1)C(=Cc1cc(Br)ccc1O)C(=O)N2 [10733/D09] | 9.8% |
| O=C1Nc2ccc(I)cc2C1=Cc1cc([N+](=O)[O-])ccc1O [10733/B10] | 5.7% |
| O=C1Nc2ccc(S(=O)(=O)Nc3ccc(C(F)(F)F)cc3)cc2C1=CC(c1cccs1)C(F)(F)F (centres unmarked) [10732/E02] | 13.1% |
| CC(C)c1cc(C=C2C(=O)Nc3ccc(S(=O)(=O)N4CCOCC4)cc32)cc(C(C)C)c1Oc1ccccc1 [10732/F04] | 16.2% |
| COc1c(Cl)cc(C=C2C(=O)Nc3ccc(S(=O)(=O)N4CCOCC4)cc32)cc1C(C)(C)C [10732/F09] | 25.6% |
| COc1c(C)cc(C=C2C(=O)Nc3ccc(Br)c(C)c32)cc1C [10733/C06] | 4.7% |
| CC(C)(C)c1cc(C=C2C(=O)Nc3ccc(S(=O)(=O)Nc4ccc(C(F)(F)F)cc4)cc32)ccc1OCc1ccccc1 [10732/E06] | 2.8% |
| O=C1Nc2c(Br)cc(Br)cc2C1=Cc1cc(Br)ccc1O [10733/A09] | -11.9% |
| CCOC(=O)c1c(C)[nH]c(C=C2C(=O)Nc3ccc(S(=O)(=O)Nc4ccc(C(F)(F)F)cc4)cc32)c1C [10718/E02] | 19.7% |
| CC(C)(C)c1cc(C=C2C(=O)Nc3ccc(I)cc32)cc(I)c1OCc1ccccc1 [10733/B02] | -7.4% |
| CNS(=O)(=O)c1ccc2c(c1)C(=Cc1cc(C(C)(C)C)c(OCc3ccccc3)c(C(C)(C)C)c1)C(=O)N2 [10733/D05] | 16.5% |
| COc1c(C(C)(C)C)cc(C=C2C(=O)Nc3c(Br)cc(Br)cc32)cc1C(C)(C)C [10733/A04] | -11.2% |
| COc1c(I)cc(C=C2C(=O)Nc3ccc(S(=O)(=O)Nc4ccc(C(F)(F)F)cc4)cc32)cc1C(C)(C)C [10732/E11] | 16.2% |
| COc1ccc(C=C2C(=O)Nc3ccc(CCCl)cc32)cc1C(C)(C)C [10732/G05] | 17.2% |
| COc1c(C(C)(C)C)cc(C=C2C(=O)Nc3ccc(Br)c(C)c32)cc1C(C)(C)C [10733/C04] | 8.4% |
| CNS(=O)(=O)c1ccc2c(c1)C(=Cc1ccc(O)c(OC)c1[N+](=O)[O-])C(=O)N2 [10733/D11] | 1.0% |
| O=C1Nc2ccc(S(=O)(=O)N3CCOCC3)cc2C1=CC(c1cccs1)C(F)(F)F (centres unmarked) [10732/F02] | 7.0% |
| CC(C)(C)c1cc(C=C2C(=O)Nc3ccc(CCCl)cc32)cc(Br)c1OCc1ccccc1 [10732/G08] | 10.0% |
| CNS(=O)(=O)c1ccc2c(c1)C(=Cc1cc(C)c(OC)c(C)c1)C(=O)N2 [10733/D06] | 17.9% |
| COc1c(O)ccc(C=C2C(=O)Nc3ccc(Br)c(C)c32)c1[N+](=O)[O-] [10733/C11] | 42.8% |
| CC(C)(C)c1cc(C=C2C(=O)Nc3c(Br)cc(Br)cc32)cc(I)c1OCc1ccccc1 [10733/A02] | -5.2% |
| CNS(=O)(=O)c1ccc2c(c1)C(=Cc1c(C)[nH]c(C(=O)OC)c1C(=O)OC)C(=O)N2 [10718/D07] | 7.8% |
| CC(C)c1cc(C=C2C(=O)Nc3ccc(CCCl)cc32)cc(C(C)C)c1Oc1ccccc1 [10732/G04] | 12.6% |
| CC(C)(C)c1cc(C=C2C(=O)Nc3ccc(CCCl)cc32)cc(Cl)c1OCc1ccccc1 [10732/G10] | 14.0% |

| Structure (SMILES) | Fik Kinase %Inhibition |
| --- | --- |
| COc1c([N+](=O)[O-])cc(C=C2C(=O)Nc3ccc(Br)c(C)c32)cc1C(C)(C)C [10733/C03] | 17.0% |
| COc1c(C(C)C)cc(C=C2C(=O)Nc3ccc(CCCl)cc32)cc1C(C)C [10732/G03] | 0.8% |
| CC(C)(C)c1cc(C=C2C(=O)Nc3ccc(CCCl)cc32)ccc1OCc1ccccc1 [10732/G06] | 26.5% |
| COc1c(I)cc(C=C2C(=O)Nc3ccc(CCCl)cc32)cc1C(C)(C)C [10732/G11] | 10.9% |
| COc1c(O)ccc(C=C2C(=O)Nc3c(Br)cc(Br)cc32)c1[N+](=O)[O-] [10733/A11] | 15.0% |
| CNS(=O)(=O)c1ccc2c(c1)C(=Cc1cc(I)c(OC)c(C(C)(C)C)c1)C(=O)N2 [10732/D11] | 18.8% |
| COc1cc(Br)cc(C=C2C(=O)Nc3ccc(I)cc32)c1O [10733/B08] | -16.0% |
| COc1c(Br)cc(C=C2C(=O)Nc3ccc(S(=O)(=O)N4CCOCC4)cc32)cc1C(C)(C)C [10732/F07] | 31.0% |
| CNS(=O)(=O)c1ccc2c(c1)C(=Cc1cc(I)c(OCc3ccccc3)c(C(C)(C)C)c1)C(=O)N2 [10733/D02] | 3.1% |
| COc1c(Br)cc(C=C2C(=O)Nc3ccc(CCCl)cc32)cc1C(C)(C)C [10732/G07] | 4.6% |
| Cc1c(Br)ccc2c1C(=Cc1cc(Br)ccc1O)C(=O)N2 [10733/C09] | -18.0% |
| COc1ccc(C=C2C(=O)Nc3ccc(S(=O)(=O)N4CCOCC4)cc32)cc1C(C)(C)C [10732/F05] | 37.3% |
| Cc1cc(C=C2C(=O)Nc3ccc(I)cc32)cc(C)c1OCc1ccccc1 [10733/B07] | 1.2% |
| Cc1cc(C=C2C(=O)Nc3ccc(Br)c(C)c32)cc(C)c1OCc1ccccc1 [10733/C07] | 1.2% |
| COc1c(Br)cc(C=C2C(=O)Nc3ccc(S(=O)(=O)Nc4ccc(C(F)(F)F)cc4)cc32)cc1C(C)(C)C [10732/E07] | 21.3% |
| COc1c(O)ccc(C=C2C(=O)Nc3ccc(I)cc32)c1[N+](=O)[O-] [10733/B11] | 22.5% |
| COc1cc(Br)cc(C=C2C(=O)Nc3c(Br)cc(Br)cc32)c1O [10733/A08] | -17.1% |
| O=C1Nc2c(Br)cc(Br)cc2C1=Cc1cc([N+](=O)[O-])ccc1O [10733/A10] | -9.3% |
| CNS(=O)(=O)c1ccc2c(c1)C(=Cc1cc([N+](=O)[O-])ccc1O)C(=O)N2 [10733/D10] | 2.9% |
| COc1c(C(C)C)cc(C=C2C(=O)Nc3ccc(S(=O)(=O)N4CCOCC4)cc32)cc1C(C)C [10732/F03] | 31.9% |
| COc1c(Cl)cc(C=C2C(=O)Nc3ccc(S(=O)(=O)Nc4ccc(C(F)(F)F)cc4)cc32)cc1C(C)(C)C [10732/E09] | 15.3% |
| COc1cccc(O)c1C=C1C(=O)Nc2c(Br)cc(Br)cc21 [10717/A10] | -3.3% |
| CC(C)(C)c1cc(C=C2C(=O)Nc3ccc(S(=O)(=O)N4CCOCC4)cc32)cc(Cl)c1OCc1ccccc1 [10732/F10] | 14.1% |
| COc1c(I)cc(C=C2C(=O)Nc3ccc(S(=O)(=O)N4CCOCC4)cc32)cc1C(C)(C)C [10732/F11] | 21.9% |

| Structure (SMILES) | Fik Kinase %Inhibition |
| --- | --- |
| CNS(=O)(=O)c1ccc2c(c1)C(=Cc1ccc([N+](=O)[O-])o1)C(=O)N2 [10718/D11] | 13.3% |
| CC(C)(C)c1cc(C=C2C(=O)Nc3c(Br)cc(Br)cc32)cc(C(C)(C)C)c1OCc1ccccc1 [10733/A05] | -23.3% |
| CC(C)(C)c1cc(C=C2C(=O)Nc3ccc(S(=O)(=O)Nc4ccc(C(F)(F)F)cc4)cc32)cc(Br)c1OCc1ccccc1 [10732/E08] | 13.6% |
| CNS(=O)(=O)c1ccc2c(c1)C(=Cc1cc(Br)cc(OC)c1O)C(=O)N2 [10733/D08] | -8.3% |
| CC(C)(C)c1cc(C=C2C(=O)Nc3ccc(S(=O)(=O)Nc4ccc(C(F)(F)F)cc4)cc32)cc(Cl)c1OCc1ccccc1 [10732/E10] | 16.7% |
| COc1ccc(C=C2C(=O)Nc3ccc(S(=O)(=O)Nc4ccc(C(F)(F)F)cc4)cc32)cc1C(C)(C)C [10732/E05] | 18.7% |
| Cc1c(Br)ccc2c1C(=Cc1cc(C(C)(C)C)c(OCc3ccccc3)c(C(C)(C)C)c1)C(=O)N2 [10733/C05] | 11.5% |
| COc1cc(Br)cc(C=C2C(=O)Nc3ccc(Br)c(C)c32)c1O [10733/C08] | -28.5% |
| CNS(=O)(=O)c1ccc2c(c1)C(=Cc1ccco1)C(=O)N2 [10718/D10] | 15.0% |
| COc1c(C)cc(C=C2C(=O)Nc3ccc(I)cc32)cc1C [10733/B06] | 4.6% |
| CNS(=O)(=O)c1ccc2c(c1)C(=Cc1ccc(O)c(C)c1O)C(=O)N2 [10718/D09] | -9.1% |
| COc1c(C(C)C)cc(C=C2C(=O)Nc3ccc(S(=O)(=O)Nc4ccc(C(F)(F)F)cc4)cc32)cc1C(C)C [10732/E03] | 16.7% |
| O=C1Nc2ccc(CCCl)cc2C1=CC(c1cccs1)C(F)(F)F (centres unmarked) [10732/G02] | 8.1% |
| O=C1Nc2ccc(I)cc2C1=Cc1cc(Br)ccc1O [10733/B09] | -2.6% |
| COc1c(Cl)cc(C=C2C(=O)Nc3ccc(CCCl)cc32)cc1C(C)(C)C [10732/G09] | 16.9% |
| CC(C)c1cc(C=C2C(=O)Nc3ccc(S(=O)(=O)Nc4ccc(C(F)(F)F)cc4)cc32)cc(C(C)C)c1Oc1ccccc1 [10732/E04] | 15.8% |
| CC(C)(C)c1cc(C=C2C(=O)Nc3ccc(I)cc32)cc(C(C)(C)C)c1OCc1ccccc1 [10733/B05] | -1.1% |
| COc1c([N+](=O)[O-])cc(C=C2C(=O)Nc3c(Br)cc(Br)cc32)cc1C(C)(C)C [10733/A03] | 45.0% |
| CC(C)(C)c1cc(C=C2C(=O)Nc3ccc(S(=O)(=O)N4CCOCC4)cc32)ccc1OCc1ccccc1 [10732/F06] | 11.6% |
| CNS(=O)(=O)c1ccc2c(c1)C(=Cc1ccc(Cl)c([N+](=O)[O-])c1)C(=O)N2 [10718/D08] | 3.9% |
| COc1c(C(C)(C)C)cc(C=C2C(=O)Nc3ccc(I)cc32)cc1C(C)(C)C [10733/B04] | -3.3% |
| COc1cc(Br)c(O)c(C=C2C(=O)Nc3ccc(S(=O)(=O)Nc4ccc(C(F)(F)F)cc4)cc32)c1 [10718/E03] | 10.0% |
| CNS(=O)(=O)c1ccc2c(c1)C(=Cc1cc([N+](=O)[O-])c(OC)c(C(C)(C)C)c1)C(=O)N2 [10733/D03] | 33.2% |

From patent EP1247803A2, “Indolinone compounds suitable for modulation of protein kinases” (Sugen, Inc., priority 1996, dated 1998)
